Assay [1] deals with T1, human 5-HT2A receptor (Homo sapiens, UniProt P28223).
T1 construct: expressed in transfected cells; host or cells: CHO (CHO-5-HT2A cell line)
The experiment in a line: Competition binding to the human 5-HT2A receptor ([3H]ketanserin, CHO-5-HT2A membranes). Conditions: for Selectivity 5-HT2A/2C (binding): from Ki values, Table 1; for Ki: human receptor, [3H]ketanserin displacement, no unit in the table, nM, read-out: 5-HT2A Ki (in parentheses) (converted).

Assay [2] addresses T2, human 5-HT2C receptor (Homo sapiens, UniProt P28335).
T2 construct: expressed in transfected cells; host or cells: HeLa (HeLa-5-HT2C cell line)
T2 sequence (P28335 33-458): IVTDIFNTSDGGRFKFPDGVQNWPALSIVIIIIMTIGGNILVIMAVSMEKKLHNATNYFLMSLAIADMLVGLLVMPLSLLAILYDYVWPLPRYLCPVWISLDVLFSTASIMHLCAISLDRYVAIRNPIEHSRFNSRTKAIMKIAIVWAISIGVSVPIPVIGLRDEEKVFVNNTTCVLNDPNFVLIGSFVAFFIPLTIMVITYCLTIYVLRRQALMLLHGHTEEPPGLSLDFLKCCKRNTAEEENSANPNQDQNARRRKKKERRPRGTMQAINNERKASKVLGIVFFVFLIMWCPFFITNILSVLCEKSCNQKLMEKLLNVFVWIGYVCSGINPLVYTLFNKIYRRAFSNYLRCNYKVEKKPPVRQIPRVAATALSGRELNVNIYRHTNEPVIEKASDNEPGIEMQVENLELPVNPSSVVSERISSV
Briefly: Competition binding to the human 5-HT2C receptor ([3H]mesulergine, HeLa-5-HT2C membranes). To be noted: for Selectivity 5-HT2C/2A (binding, in parentheses): from Ki values, Table 1; for Ki: human receptor, [3H]mesulergine displacement, no unit in the table, nM, read-out: 5-HT2C Ki (in parentheses) (converted).

The target of assay [3] is T1, human 5-HT2A receptor. The experiment in a line: Ca2+ mobilization in CHO h5-HT2A cells. Conditions: for EC50: Ca2+ mobilization, no unit in the table, nM, read-out: 5-HT2A EC50 (in parentheses) (converted); for Selectivity 5-HT2A/2C (functional): from EC50 values, Table 2; for Emax: relative efficacy, % of response to 5-HT. It counts as cell-based.
Assay [4] concerns the target T2, human 5-HT2C receptor. The experiment in a line: Ca2+ mobilization in HeLa h5-HT2C cells. It counts as cell-based. To be noted: for EC50: Ca2+ mobilization, no unit in the table, nM, read-out: 5-HT2C EC50 (in parentheses) (converted); for Emax: HeLa, read-out: 5-HT2C % Emax; for Selectivity 5-HT2C/2A (functional, in parentheses): from EC50 values, Table 2.
The target of another assay is human 5-HT2B receptor (Homo sapiens, UniProt P41595). Briefly: Competition binding to the human 5-HT2B receptor ([3H]LSD, CHO-5-HT2B membranes).
Chain of human 5-HT2B receptor (P41595 whole entry): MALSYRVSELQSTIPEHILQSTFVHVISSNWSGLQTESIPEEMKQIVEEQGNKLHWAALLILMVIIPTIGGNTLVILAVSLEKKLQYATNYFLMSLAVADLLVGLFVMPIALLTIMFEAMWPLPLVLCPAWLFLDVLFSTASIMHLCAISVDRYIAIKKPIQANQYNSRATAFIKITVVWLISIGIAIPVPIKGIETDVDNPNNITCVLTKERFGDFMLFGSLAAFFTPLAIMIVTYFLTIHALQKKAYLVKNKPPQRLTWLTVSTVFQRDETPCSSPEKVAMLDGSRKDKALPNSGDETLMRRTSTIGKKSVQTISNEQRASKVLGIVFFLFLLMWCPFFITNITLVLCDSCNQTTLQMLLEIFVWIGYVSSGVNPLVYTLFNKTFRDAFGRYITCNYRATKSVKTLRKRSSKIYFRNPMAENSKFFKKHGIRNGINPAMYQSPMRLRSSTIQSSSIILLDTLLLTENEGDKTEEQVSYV

T1 sequence (P28223 whole entry): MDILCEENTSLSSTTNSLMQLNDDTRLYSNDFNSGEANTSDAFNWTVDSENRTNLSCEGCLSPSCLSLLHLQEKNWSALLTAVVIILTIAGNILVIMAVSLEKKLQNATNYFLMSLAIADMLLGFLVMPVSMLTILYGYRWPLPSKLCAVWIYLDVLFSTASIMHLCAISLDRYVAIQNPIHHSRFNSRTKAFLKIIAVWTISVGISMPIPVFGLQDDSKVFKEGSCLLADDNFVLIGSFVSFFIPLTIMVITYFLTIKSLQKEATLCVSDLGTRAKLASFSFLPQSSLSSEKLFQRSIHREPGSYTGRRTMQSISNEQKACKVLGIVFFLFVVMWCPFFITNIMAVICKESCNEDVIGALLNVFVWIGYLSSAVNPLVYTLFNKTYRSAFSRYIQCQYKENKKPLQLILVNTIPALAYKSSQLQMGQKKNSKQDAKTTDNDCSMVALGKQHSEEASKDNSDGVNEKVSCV

With `Brc1ccccc1CNCCc1c[nH]c2ccccc12` [Compound 6, N-(2-Bromobenzyl)-[2-(1H-indol-3-yl)ethyl]amine], at human 5-HT2A receptor [1], the “Selectivity 5-HT2A/2C (binding)” value amounted to 1.74 and the inhibition constant (Ki) is 195 nM. Moreover, at human 5-HT2C receptor [2], the “Selectivity 5-HT2C/2A (binding, in parentheses)” value was found to be 0.57 and the Ki was 339 nM. On human 5-HT2A receptor [3], the EC50 was 2240 nM, the “Selectivity 5-HT2A/2C (functional)” value came to 0.10 and the Emax amounted to 29.3 ± 5.93%. Besides, on human 5-HT2C receptor [4], the EC50 is 234 nM; the Emax is 109 ± 5.2%; the “Selectivity 5-HT2C/2A (functional, in parentheses)” value is listed as 9.55. Moreover, the Ki on human 5-HT2B receptor was 74.1 nM.
Turning to `Oc1cccc(CNCCc2c[nH]c3ccccc23)c1` [Compound 7, N-(3-Hydroxybenzyl)-[2-(1H-indol-3-yl)ethyl]amine], at human 5-HT2A receptor [1], the “Selectivity 5-HT2A/2C (binding)” value came out at 0.36 and the Ki is 75.9 nM. On human 5-HT2C receptor [2], the “Selectivity 5-HT2C/2A (binding, in parentheses)” value stood at 2.8 and the Ki was 25.7 nM. On human 5-HT2A receptor [3], the EC50 was 56.2 nM, the “Selectivity 5-HT2A/2C (functional)” value is on record as 0.12 and the Emax was 52.8 ± 4.63%. Moreover, on human 5-HT2C receptor [4], the EC50 was 6.76 nM; the Emax stood at 96.3 ± 4.02%; the “Selectivity 5-HT2C/2A (functional, in parentheses)” value is recorded as 8.32. Also, the Ki on human 5-HT2B receptor was 37.1 nM.
`Cc1cccc(CNCCc2c[nH]c3ccccc23)c1` [Compound 8, N-(3-Methylbenzyl)-[2-(1H-indol-3-yl)ethyl]amine]: at human 5-HT2A receptor [1], the “Selectivity 5-HT2A/2C (binding)” value is 5.10 and the Ki was 14.4 nM. At human 5-HT2C receptor [2], the “Selectivity 5-HT2C/2A (binding, in parentheses)” value turned out to be 0.20 and the Ki was 74.1 nM. Also, on human 5-HT2A receptor [3], the EC50 is 61.7 nM, the “Selectivity 5-HT2A/2C (functional)” value was determined as 0.48 and the Emax turned out to be 33 ± 2.11%. On human 5-HT2C receptor [4], the EC50 was 29.5 nM; the Emax came out at 82.6 ± 2.11%; the “Selectivity 5-HT2C/2A (functional, in parentheses)” value was found to be 2.09. At human 5-HT2B receptor, this compound showed a Ki of 17 nM.
On to `Fc1cccc(CNCCc2c[nH]c3ccccc23)c1` [Compound 9, N-(3-Fluorobenzyl)-[2-(1H-indol-3-yl)ethyl]amine], for which, on human 5-HT2A receptor [1], the “Selectivity 5-HT2A/2C (binding)” value is given as 0.84 and the Ki is 257 nM. Also, on human 5-HT2C receptor [2], the “Selectivity 5-HT2C/2A (binding, in parentheses)” value turned out to be 1.19 and the Ki is 214 nM. Besides, at human 5-HT2A receptor [3], the EC50 was 389 nM, the “Selectivity 5-HT2A/2C (functional)” value came out at 0.29 and the Emax turned out to be 33.8 ± 4.01%. Also, on human 5-HT2C receptor [4], the EC50 is 112 nM; the Emax worked out at 112 ± 4.84%; the “Selectivity 5-HT2C/2A (functional, in parentheses)” value is recorded as 3.47. Also, on human 5-HT2B receptor, affinity was put at a Ki of 126 nM.
On to `Clc1cccc(CNCCc2c[nH]c3ccccc23)c1` [Compound 10, N-(3-Chlorobenzyl)-[2-(1H-indol-3-yl)ethyl]amine], for which, at human 5-HT2A receptor [1], the “Selectivity 5-HT2A/2C (binding)” value is reported as 2.17 and the Ki was 44.7 nM. Also, on human 5-HT2C receptor [2], the “Selectivity 5-HT2C/2A (binding, in parentheses)” value is on record as 0.46 and the Ki is 97.7 nM. On human 5-HT2A receptor [3], the EC50 is 120 nM, the “Selectivity 5-HT2A/2C (functional)” value turned out to be 2.34 and the Emax came to 57.9 ± 4.15%. Further, at human 5-HT2C receptor [4], the half-maximal effective concentration (EC50) is 282 nM; the Emax is 117 ± 4.82%; the “Selectivity 5-HT2C/2A (functional, in parentheses)” value is given as 0.43. Further, the Ki at human 5-HT2B receptor was 34.7 nM.
With `Brc1cccc(CNCCc2c[nH]c3ccccc23)c1` [Compound 11, N-(3-Bromobenzyl)-[2-(1H-indol-3-yl)ethyl]amine], on human 5-HT2A receptor [1], the Ki is 8.13 nM. For the same compound, the Ki on human 5-HT2C receptor [2] is 75.9 nM. In addition, at human 5-HT2A receptor [3], the EC50 was 58.9 nM, the “Selectivity 5-HT2A/2C (functional)” value came out at 0.93 and the Emax was 32.6 ± 1.64%. Moreover, at human 5-HT2C receptor [4], the EC50 was 55 nM; the Emax turned out to be 107 ± 2.78%; the “Selectivity 5-HT2C/2A (functional, in parentheses)” value is 1.07. On human 5-HT2B receptor, this compound gave a Ki of 21.9 nM.

The record behind these values is paper PMC6328172, “5-HT2 receptor binding, functional activity and selectivity in N-benzyltryptamines” (PLoS ONE, 2019).
